Results as given in US11766447B2, “3′3′-cyclic dinucleotide analogue comprising a cyclopentanyl modified nucleotide as sting modulator” (INSTITUTE OF ORGANIC CHEMISTRY AND BIOCHEMISTRY ASCR, V.V.I., priority 2019, dated 2023).
Where two headings read alike, the source gives them in different places.

How the values were obtained:
WT STING [1] = molecular target: T1, WT STING (Homo sapiens, UniProt Q86WV6, H232R); test: 293T WT STING standard reporter assay; format: cell-based; parameters: host or cells: 293T (ATCC CRL-3216), stably transfected, with 4xISRE firefly luciferase reporter; settings: 293T wtSTING-FL cells, ISRE firefly luciferase; no digitonin; 7 hours with compounds; 8-point curve
Text: Two complementary oligonucleotides of the sequence […] […] […] […] […] The oligonucleotides were mixed in equal molar amounts, hybridized, and cleaved by restriction endonucleases HindIII (cat. #. R0104S, NEB, Ipswich, USA) and BglII (cat. #R0144S, NEB, Ipswich, USA). Ultimately, they were ligated into plasmid pGL4.27 (cat. #E6651, Promega, Madison, USA) linearized with the same enzymes. As result the sequence with four ISRE sites was placed upstream of the minimum promoter of firefly luciferase reporter gene.
After 5 minutes incubation at room temperature (RT), 250 μL of the mixture was added dropwise to the cells in one well. Cells were incubated 36 hours at 37° C. with 5% CO2, and then detached with 0.05% Trypsin and 0.22 g/L EDTA (both cat. #L0941, Biowest, Riverside, USA).
Transfected cells were seeded onto poly-D-lysine coated six well plates at density 50,000 cells per 1 cm^2 in DMEM medium with high glucose containing 10% heat inactivated FBS, 30 μg/mL blasticidin (cat. #ant-b1-05, InvivoGen, San Diego, USA), 0.06 mg/ml Penicillin G and 0.1 mg/ml Streptomycin Sulfate (both cat. #. L0018, Biowest, Riverside, USA). The medium was replenished every 3-4 days until visible colonies of cells resistant to blasticidin were formed.
Blasticidin resistant cells stably expressing WT STING were further transfected with […] plasmid following the same procedure as described above. […] Homogeneous culture of stably double transfected cells was prepared by limiting dilution of cells in 96 well plates and wells with cells were selected that originated from a single cell.
The medium was removed next day and three-fold serial dilutions of compounds in 100 μl medium were added to the cells. The plates with cells were incubated for 7 hours at 37° C. with 5% CO2. After 50 μl of the medium was removed, 30 μl of ONE-Glo™ Luciferase Assay System reagent (cat. #E6120, Promega, Madison, USA) was added to each well and luminescence was read on Synergy H1 (Biotek, Winooski, USA).
Target sequence in this assay (Q86WV6 whole entry H232R): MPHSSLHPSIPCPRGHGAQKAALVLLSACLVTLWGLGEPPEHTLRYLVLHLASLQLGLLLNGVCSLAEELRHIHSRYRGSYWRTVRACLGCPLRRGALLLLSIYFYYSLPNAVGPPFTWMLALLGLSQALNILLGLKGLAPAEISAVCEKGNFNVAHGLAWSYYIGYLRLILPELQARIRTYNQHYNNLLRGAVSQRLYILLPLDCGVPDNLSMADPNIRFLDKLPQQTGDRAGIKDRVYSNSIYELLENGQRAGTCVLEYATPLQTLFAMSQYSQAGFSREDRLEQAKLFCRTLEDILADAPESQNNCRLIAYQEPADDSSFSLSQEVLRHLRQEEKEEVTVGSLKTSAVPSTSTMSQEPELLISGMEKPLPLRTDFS

[2] = tested on: peripheral blood mononuclear cells (PBMC); test: Peripheral blood mononuclear cell (PBMC) assay; format: cell-based; settings: 1 h with compounds, washed, 15 hour incubation, average of one to four donors
Description: Selected compounds were tested in an in vitro peripheral blood mononuclear cell (PBMC) assay. […] Serially diluted tested compounds were added to wells in 50 μl of cultivation medium and cell were incubated with compounds for 1 h at 37° C. with 5% CO2. Plates with cells were then spun 500 g for 5 minutes and medium was removed. Cells were washed twice with the cell culture medium by the use of centrifugation and gently resuspended in 100 μl medium without compounds. After 15 hour incubation at 37° C. with 5% CO2, the cell culture medium was collected and the levels of interferon-alpha (INF-α), interferon-gamma (INF-γ) and tumor necrosis factor-alpha (TNF-α) were determined with ProcartaPlex Assays (ThermoFisher, Waltham, USA) and MAGPIX System (Merck KGaA, Darmstadt, Germany). […] Values reported are an average of runs from one to four donors.

AQ STING (G230A-R293Q) = molecular target: T2, AQ STING (G230A-R293Q) (Homo sapiens, UniProt Q86WV6, G230A/H232R/R293Q); test: Differential scanning fluorimetry (DSF) with AQ STING; format: binding; settings: thermal shift vs apoprotein; 150 μM CDN; truncated human AQ STING 0.1 mg/ml
T2 construct: 8xHis (N, cleaved yes); SUMO (N, cleaved yes); made in house; host or cells: E. coli Rosetta-gami B (DE3)
T2 sequence (Q86WV6 140-343 G230A/H232R/R293Q): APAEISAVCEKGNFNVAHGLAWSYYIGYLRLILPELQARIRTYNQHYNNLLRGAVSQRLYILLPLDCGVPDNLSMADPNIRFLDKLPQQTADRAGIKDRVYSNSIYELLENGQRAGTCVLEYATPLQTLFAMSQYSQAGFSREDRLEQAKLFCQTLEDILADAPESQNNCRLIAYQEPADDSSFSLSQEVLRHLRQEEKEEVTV
How it was run: (§1)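 […] STING proteins, alone or with CDNs, in triplicate, thermally denatured on a real-time PCR cycler. Denaturing temperatures taken from first-derivative curves; shift = mean Tm of STING–CDN complex minus mean Tm of apoprotein.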

WT STING [3] = molecular target: T1, WT STING; test: Differential scanning fluorimetry (DSF) with WT STING; format: binding; parameters: 8xHis (N, cleaved yes); SUMO (N, cleaved yes); made in house; host or cells: E. coli Rosetta-gami B (DE3); settings: thermal shift vs apoprotein; 150 μM CDN; truncated human WT STING 0.1 mg/ml
How it was run: as §1
Target sequence in this assay (Q86WV6 140-343 H232R): as the sequence (Q86WV6 140-343 G230A/H232R/R293Q) above, with A91G, Q154R counted along it

WT STING [4] = molecular target: T1, WT STING; test: Digitonin assay using 293T wtSTING-FL reporter cells; format: cell-based; parameters: host or cells: 293T (ATCC CRL-3216), stably transfected, with 4xISRE firefly luciferase reporter; settings: 293T wtSTING-FL cells, ISRE firefly luciferase; compounds in Digitonin buffer 30 minutes, then 5 hours; 8-point curve
Target sequence in this assay (Q86WV6 whole entry H232R): as the sequence (Q86WV6 whole entry H232R) above

[5] = PBMC, interferon-alpha level, read-out: PBMC EC50 (μM) IFN-α
[6] = PBMC, interferon-gamma level, read-out: PBMC EC50 (μM) IFN-γ
[7] = PBMC, tumor necrosis factor-alpha level, read-out: PBMC EC50 (μM) TNF-α
[8] = interferon-alpha level, read-out: PBMC EC50 (μM) IFN-α
[9] = interferon-gamma level, read-out: PBMC EC50 (μM) IFN-γ
[10] = tumor necrosis factor-alpha level, read-out: PBMC EC50 (μM) TNF-α

Q: How did the EC50 (WT STING [1]) turn out when CC1(C(=O)OCOP2(=O)OC[C@H]3O[C@@H](n4cnc5c(N)ncnc54)[C@H](F)[C@@H]3OP(=O)(OCOC(=O)C3(C)CCCCC3)OC[C@H]3C[C@@H](n4cnc5c(N)ncnc54)[C@H](F)[C@@H]3O2)CCCCC1 (single isomer, unassigned) [Compound 145b] was run?
A: 1 nM

Q: What about the EC50 [2, 5] of the same compound?
A: 0.007 µM

Q: And the EC50 [2, 6]?
A: 0.002 µM

Q: And the EC50 [2, 7]?
A: 0.006 µM

Q: For CCCCCCCC(=O)OCOP1(=O)OC[C@H]2O[C@@H](n3cnc4c(N)ncnc43)[C@H](F)[C@@H]2OP(=O)(OCOC(=O)CCCCCCC)OC[C@H]2C[C@@H](n3cnc4c(N)ncnc43)[C@H](F)[C@@H]2O1 (single isomer, unassigned) [Compound 146c], which EC50 (WT STING [1]) is on record?
A: 1 nM

Q: And the EC50 [2, 8]?
A: 0.02 µM

Q: And the EC50 [2, 9]?
A: 0.02 µM

Q: What about the EC50 [2, 10] of the same compound?
A: 0.01 µM

Q: Which results are given for CC(C)(C)C(=O)OCOP1(=O)OC[C@H]2C[C@@H](n3cnc4c(N)ncnc43)C(F)[C@H]2OP(=O)(OCOC(=O)C(C)(C)C)OC[C@H]2O[C@@H](n3cnc4c(N)ncnc43)[C@@H](F)C2O1 (single isomer, unassigned) [Compound 136d]?
A: EC50 (WT STING [1]): 10 nM; EC50 [2, 5]: 0.9 µM; EC50 [2, 6]: 2.4 µM; EC50 [2, 7]: 0.8 µM

Q: For CCC(C)(C)C(=O)OCOP1(=O)OC[C@H]2O[C@@H](n3cnc4c(N)ncnc43)[C@H](F)[C@@H]2OP(=O)(OCOC(=O)C(C)(C)CC)OC[C@H]2C[C@@H](n3cnc4c(N)ncnc43)[C@H](F)[C@@H]2O1 (single isomer, unassigned) [Compound 144a], which EC50 (WT STING [1]) is on record?
A: 20 nM

Q: Which results are given for CCC(C)(C)C(=O)OCOP1(=O)OC[C@H]2O[C@@H](n3cnc4c(N)ncnc43)C(F)C2OP(=O)(OCOC(=O)C(C)(C)CC)OC[C@H]2C[C@@H](n3cnc4c(N)ncnc43)C(F)C2O1 (stereo partly drawn) [Compound 144b, {[(1R,6R,8R,9R,10R,15R,17R,18S)-8,17-bis(6-amino-9H-purin-9-yl)-3-{[(2,2-dimethylbutanoy)oxy]methoxy}-9,18-difluoro-3,12-dioxo-2,4,7,11,13-pentaoxa-3λ^5,12λ^5-diphosphatricyclo[13.3.0.0^6,10]octadecan-12-yl]oxy}methyl 2,2-dimethylbutanoate]?
A: EC50 (WT STING [1]): 1 nM; EC50 [2, 5]: 0.04 µM; EC50 [2, 6]: 0.05 µM; EC50 [2, 7]: 0.02 µM

Q: CC(C)(C)C(=O)OCOP1(=O)OC[C@H]2C[C@@H](n3cnc4c(N)ncnc43)C(F)C2OP(=O)(OCOC(=O)C(C)(C)C)OC[C@H]2C[C@@H](n3cnc4c(N)ncnc43)C(F)C2O1 (single isomer, unassigned) [Compound 138b] was tested. Which EC50 (WT STING [1]) did it give?
A: 20 nM

Q: What about the EC50 [2, 8] of the same compound?
A: 1 µM

Q: And the EC50 [2, 9]?
A: 2.6 µM

Q: What about the EC50 [2, 10] of the same compound?
A: 1.3 µM

Q: How did the EC50 (WT STING [1]) turn out when CC(C)OC(=O)OCOP1(=O)OC[C@H]2O[C@@H](n3cnc4c(N)ncnc43)[C@H](F)[C@@H]2OP(=O)(OCOC(=O)OC(C)C)OC[C@H]2C[C@@H](n3cnc4c(N)ncnc43)[C@H](F)[C@@H]2O1 (single isomer, unassigned) [Compound 143a] was run?
A: 100 nM

Q: Which EC50 (WT STING [1]) does the source give for CC(C)(C)C(=O)OCOP1(=O)OC[C@H]2C[C@@H](n3cnc4c(N)ncnc43)C(F)[C@H]2OP(=O)(OCOC(=O)C(C)(C)C)OC[C@H]2O[C@@H](n3cnc4c(N)ncnc43)[C@@H](F)C2O1 (single isomer, unassigned) [Compound 136b] here?
A: 60 nM

Q: For CC(C)(C)C(=O)OCOP1(=O)OC[C@H]2O[C@@H](n3cnc4c(N)ncnc43)C(F)C2OP(=O)(OCOC(=O)C(C)(C)C)OC[C@H]2C[C@@H](n3cnc4c(N)ncnc43)CC2O1 (single isomer, unassigned) [Compound 137a], which EC50 (WT STING [1]) is on record?
A: 200 nM

Q: Which EC50 (WT STING [1]) does the source give for CC(C)(C)C(=O)OCOP1(=O)OC[C@H]2O[C@@H](n3cnc4c(N)ncnc43)C(F)C2OP(=O)(OCOC(=O)C(C)(C)C)OC[C@H]2C[C@@H](n3cnc4c(N)ncnc43)CC2O1 (single isomer, unassigned) [Compound 137b] here?
A: 90 nM

Q: How did the EC50 (WT STING [1]) turn out when CC1(C(=O)OCOP2(=O)OC[C@H]3O[C@@H](n4cnc5c(N)ncnc54)[C@H](F)[C@@H]3OP(=O)(OCOC(=O)C3(C)CCCCC3)OC[C@H]3C[C@@H](n4cnc5c(N)ncnc54)[C@H](F)[C@@H]3O2)CCCCC1 (single isomer, unassigned) [Compound 145a] was run?
A: 120 nM

Q: With “(((2R,3R,3aR,7aR,9R,10S,10aR,14aR)-2,9-bis(6-amino-9H-purin-9-yl)-3,10-difluoro-12-hydroxy-5,12-dioxidodecahydro-2H-cyclopenta[d]furo[3,2-j][1,3,7,9]tetraoxa[2,8]diphosphacyclododecin-5-yl)oxy)methyl pivalate [Compound 135a]” as the compound, how does the EC50 (WT STING [1]) read?
A: 300 nM

Q: Which EC50 (WT STING [1]) does the source give for CC(C)(C)C(=O)OCOP1(=O)OC[C@H]2C[C@@H](n3cnc4c(N)ncnc43)C(F)[C@H]2OP(=O)(OCOC(=O)C(C)(C)C)OC[C@H]2O[C@@H](n3cnc4c(N)ncnc43)[C@@H](F)C2O1 (single isomer, unassigned) [Compound 136c] here?
A: 50 nM

Q: For Nc1ncnc2c1ncn2[C@H]1CC2OP(=O)(O)OC[C@H]3O[C@@H](n4cnc5c(N)ncnc54)CC3OP(=O)(O)OC[C@H]2C1 (stereo partly drawn) [Compound 126, (2R,3aS,7aR,9R,10aS,14aR)-2,9-bis(6-amino-9H-purin-9-yl)-5,12-dihydroxydecahydro-2H-cyclopenta[d]furo[3,2-j][1,3,7,9]tetraoxa[2,8]diphosphacyclododecine 5,12-dioxide], which ΔTm at 150 µM (AQ STING (G230A-R293Q)) is on record?
A: 7.5 °C

Q: What about the ΔTm at 150 µM (WT STING [3]) of the same compound?
A: 1.1 °C

Q: And the EC50 (WT STING [4])?
A: 1800 nM

Q: Which ΔTm at 150 µM (AQ STING (G230A-R293Q)) does the source give for Nc1ncnc2c1ncn2[C@H]1CC2OP(=O)(O)OC[C@H]3C[C@@H](n4cnc5c(N)ncnc54)CC3OP(=O)(O)OC[C@H]2C1 (stereo partly drawn) [Compound 125, (2R,3aS,7aR,9R,10aS,14aR)-2,9-bis(6-amino-9H-purin-9-yl)-5,12-dihydroxydodecahydrodicyclopenta[d,j][1,3,7,9]-tetraoxa[2,8]diphosphacyclododecine 5,12-dioxide] here?
A: 5.1 °C

Q: And the ΔTm at 150 µM (WT STING [3])?
A: 0.7 °C

Q: And the EC50 (WT STING [4])?
A: 13200 nM

Q: For Nc1nc2c(ncn2[C@H]2CC3OP(=O)(O)OC[C@H]4C[C@@H](n5cnc6c(N)ncnc65)C(O)C4OP(=O)(O)OC[C@H]3O2)c(=O)[nH]1 (stereo partly drawn) [Compound 110, 2-amino-9-((2R,3a5,7aR,9R,10S,10aR,14aR)-9-(6-amino-9H-purin-9-yl)-5,10,12-trihydroxy-5,12-dioxidodecahydro-2H-cyclopenta[d]furo[3,2-j][1,3,7,9]tetraoxa[2,8]diphosphacyclododecin-2-yl)-1,9-dihydro-6H-purin-6-one], which ΔTm at 150 µM (AQ STING (G230A-R293Q)) is on record?
A: 15.7 °C

Q: And the ΔTm at 150 µM (WT STING [3])?
A: 5.8 °C

Q: What about the EC50 (WT STING [4]) of the same compound?
A: 50 nM
